System: FICD (mem, H-FICD, L-FICD)
Experiment: FICD in membrane, cytoplasmic and nuclear fractions of human OCPs, immunoblot
Type: cell-based
Protocol: (a) Human CD14+ cells were cultured with M-CSF (20 ng/ml) for 8 hours to induce early signals and then DAPT (10uM) was added for 2 days. Protein expression of c-FMS, Na+K+ pump, Lamin B1 and α-tubulin, as determined by immunoblot. ME; membrane extracts, CE; cytoplasmic extracts, and NE; nuclear extracts. (b) Immunohistochemistry of DAPI and c-FMS [middle]. […] Scale: 200×. (c) Cells were starved for three hours and then stimulated with M-CSF for the indicated times. (d and e) Cells were treated with Imatinib (0.3 μM, d) or c-FMS blocking antibody (5 μg) prior to the addition of M-CSF. Protein expression of FICD was measured by immunoblot. Lamin B1 and α-tubulin were used as controls for nuclear and cytoplasmic fractions, respectively. (f) Human CD14+ cells were cultured with M-CSF (20 ng/ml) for 8 hours to induce early signals and then MDL 28170(5 uM). Immunoblot with anti c-FMS and Lamin B1 antibodies. (g and h) Calpain 1, 5, and 6 were knocked down with siRNAs. Cells were cultured with M-CSF for 12 hours. (g) Efficiency of knockdown of Calpain 1, 5, and 6. (h) Immunoblot of c-FMS and Lamin B1. All data are shown as mean±SEM. *,p<0.05 by two-tailed, unpaired t-test (g). Representative results from at least three independent experiments.
(A and B) Human CD14+ cells were cultured with M-CSF (20 ng/ml) for 8 hours to induce early signals and then (A) MDL 28170(0, 1, 2, 5 uM) or (B) PD150606 (0, 2, 5 uM) was added for 2 days. Immunoblot with anti c-FMS and α-tubulin antibodies in whole lysates(n=3). (C) Immunoblot of nuclear lysates with c-FMS and Lamin B1 antibodies. Cells were cultured with M-CSF for 12 hours, and then M-CSF was removed. Cells were subsequently treated with or without CaCl2 (10 mM) for an additional 24 hours. (D) Osteoclastogenesis assay. Human CD14+ cells were cultured with M-CSF, RANKL and MDL28170 for 4 days. […] Black scale bar is 100 μm. […] First two calpain cleavage sites in cytoplasmic domains of c-FMS were used for FICD constructs. (F) A schematic diagram of a FICD construct. Representative results from at least three independent experiments.
Whole cell extracts were prepared by lysis in buffer containing 1× Lamin sample buffer (Bio-rad) and 2-Mercaptoethanol (Sigma) or RIPA buffer (Sigma). The cell membrane-permeable protease inhibitor, Pefablock (1 mM), was added immediately prior to harvest cells. The membrane proteins were extracted with Mem-PER™ Plus Membrane Protein Extraction Kit (Thermorfisher scientific; 89842) according to manufacturer's instructions. To extracts of nucleus protein, cells were incubated in buffer A (10 mM Hepes, pH 7.9, 1.5 mM MgCl2, 10 mM KCl, 0.1 mM EDTA, 0.1 mM EGTA, proteinase inhibitor cocktail (Complete, Roche) and 1 mM DTT) for 15 min at 4° C. NP-40 was added to a final concentration of 0.5%. Nucleus was collected by centrifugation (5000 rpm, 5 min). The pellets were lysed by Bioruptor-ultrasonicator (UCD400, Diagenode) in buffer B (20 mM Hepes, pH 7.9, 0.4M NaCl, 10 mM KCl, 1 mM EDTA, 1 mM EGTA, 10% Glycerol, proteinase inhibitor cocktail and 1 mM DTT) and collected the supernatant by centrifugation (12,000 rpm, 10 min). The protein concentration of nuclear extracts was quantitated using the Bradford assay (Bio-Rad; 5000001). For immunoblot, proteins were separated on 7.5 or 10% SDS-PAGE gels, transferred to polyvinylidene difluoride membranes (PVDF, Millipore; ISEQ00010), and detected by antibodies as listed in the figure legends.

[1] = MDL 28170 5 uM after 8 hours M-CSF, nuclear extracts

## MDL28170
M-CSF removed, CaCl2 (10 mM) for 24 hours, nuclear lysates
  effect of calcium signaling on L-FICD processing: reversed
[1]
  enrichment of L-FICD versus H-FICD in the nucleus: shifted the enrichment of L-FICD to H-FICD in the nucleus
  translocation of FICD into the nucleus: did not interfere
